IC50 data for one compound are collected here from BindingDB's records for doi:10.1021/jm058041z (University of Würzburg, 2005).

pIC50: −log10 of the molar value.

The pIC50 is −log10 of the IC50, conventionally taken in molar units. A higher pIC50 goes with a small IC50.

This assay can be described thus: Inhibition of acetylcholinesterase.

In turn, `Nc1c2c(nc3c(CO)cccc13)CCCC2` [9-amino-5,6,7,8-tetrahydroacridin-4yl)methano] gave a negative-log IC50 (pIC50) of 6.90.
